The source made the active and inactive calls. The rule behind the calls is not given here.
Experiments:
[1] = tested on: HepG2; test: Cytotoxicity against human HepG2 cells assessed as reduction in cell viability at 0.5 to 5 uM incubated for 24 hrs by MTT assay; format: functional, cell-based; conditions: dose 0.5-5 µM
[2] = Inhibition of PI3K/Akt/mTOR signaling pathway in human SNU-449 cells assessed as reduction in phosphorylation of mTORC1/2 incubated for 1 hr under normoxia condition by Western blotting analysis; format: cell-based; conditions: dose 0.25-1 µM
[3] = tested on: Mahlavu; test: Cytotoxicity against human Mahlavu cells assessed as reduction in cell viability at 0.5 uM incubated for 24 hrs in presence of chloroquine by MTT assay; format: functional, cell-based
[4] = tested on: Mahlavu; test: Induction of apoptosis in human Mahlavu cells assessed as viable cells at IC50 incubated for 24 hrs in presence of Z-VAD-fmk by Annexin-V/7-AAD staining based muse cell analyzer method (reference value: 90.52 %); format: functional
[5] = tested on: Mahlavu; test: Cytotoxicity against human Mahlavu cells assessed as reduction in cell viability at 0.5 to 5 uM incubated for 24 hrs by MTT assay; format: functional, cell-based; conditions: dose 0.5-5 µM
[6] = tested on: Mahlavu; test: Induction of autophagy in human Mahlavu cells assessed as increased expression of LC3 A/B II at 0.5 uM incubated for 24 hrs in presence of chloroquine under hypoxia condition by Western blot analysis; format: functional, cell-based
[7] = tested on: Mahlavu; test: Induction of apoptosis in human Mahlavu cells assessed as late apoptotic cells at 0.66 uM incubated for 24 hrs by Annexin-V/7-AAD staining based muse cell analyzer method (reference value: 2.24 %); format: functional
[8] = tested on: SNU-475; test: Cytotoxicity against human SNU-475 cells assessed as reduction in cell viability at 0.5 to 5 uM incubated for 24 hrs by MTT assay; format: functional, cell-based; conditions: dose 0.5-5 µM
[9] = Inhibition of PI3K/Akt/mTOR signaling pathway in human Hep3B cells assessed as reduction in phosphorylation of mTORC1 substrate S6 incubated for 1 hr under normoxia condition by Western blotting analysis; format: cell-based; conditions: dose 0.25-1 µM
[10] = tested on: Mahlavu; test: Induction of autophagy in human Mahlavu cells assessed as increase in lipidation of LC3A/B II level at 0.5 uM incubated for 24 hrs in presence of chloroquine by Western blot analysis; format: functional, cell-based
[11] = Inhibition of PI3K/Akt/mTOR signaling pathway in human Mahlavu cells assessed as reduction in phosphorylation of Akt at 0.001 to 0.01 uM incubated for 1 hr under hypoxia condition by Western blotting analysis; format: cell-based; conditions: dose 0.001-0.01 µM
[12] = tested on: Mahlavu; test: Induction of autophagy in human Mahlavu cells assessed as increase in lipidation of LC3I to LC3II at 0.5 uM incubated for 24 hrs by Western blot analysis; format: functional, cell-based
[13] = tested on: SNU-449; test: Induction of apoptosis in human SNU-449 cells assessed as late apoptotic cells at IC50 concentration incubated for 24 hrs in presence of Z-VAD-fmk by Annexin-V/7-AAD staining based muse cell analyzer method (reference value: 5.03 %); format: functional
[14] = tested on: SNU-449; test: Induction of apoptosis in human SNU-449 cells assessed as late apoptotic cells at 1.5 uM incubated for 24 hrs by Annexin-V/7-AAD staining based muse cell analyzer method (reference value: 5.03 %); format: functional
[15] = tested on: Mahlavu; test: Induction of apoptosis in human Mahlavu cells assessed as early apoptotic cells at 0.66 uM incubated for 24 hrs by Annexin-V/7-AAD staining based muse cell analyzer method (reference value: 6.57 %); format: functional
[16] = Inhibition of PI3K/Akt/mTOR signaling pathway in human SNU-475 cells assessed as reduction in S6 phosphorylation at 1 to 10 nM incubated for 1 hr under normoxia condition by Western blotting analysis; format: cell-based; conditions: dose 1-10 nM
[17] = Inhibition of PI3K/Akt/mTOR signaling pathway in human SNU-449 cells assessed as reduction in phosphorylation of mTORC1 substrate S6 incubated for 1 hr under normoxia condition by Western blotting analysis; format: cell-based; conditions: dose 0.25-1 µM
[18] = tested on: SNU-449; test: Induction of apoptosis in human SNU-449 cells assessed as viable cells at 1.5 uM incubated for 24 hrs by Annexin-V/7-AAD staining based muse cell analyzer method (reference value: 90.07 %); format: functional; conditions: read-out: Activity
[19] = tested on: Hep 3B2; test: Induction of cell cycle arrest in human Hep3B cells assessed as increase in accumulation of cells in G0/G1 phase incubated at 0.01 to 0.1 uM for 24 hrs by propidium iodide staining based muse cell analysis; format: functional; conditions: dose 0.01-0.1 µM
[20] = tested on: Mahlavu; test: Induction of cell cycle arrest in human Mahlavu cells assessed as increase in accumulation of cells in G0/G1 phase incubated at 0.01 to 0.1 uM for 24 hrs by propidium iodide staining based muse cell analysis; format: functional; conditions: dose 0.01-0.1 µM
[21] = tested on: SNU-475; test: Induction of apoptosis in human SNU-475 cells assessed as cleaved PARP level at 0.5 uM incubated for 24 hrs by Western blotting analysis; format: functional, cell-based
[22] = tested on: SNU-475; test: Induction of autophagy in human SNU-475 cells assessed as reduction in SQSTM1/p62 level by Western blot analysis; format: functional, cell-based; conditions: dose 0.1-0.5 µM
[23] = Inhibition of PI3K/Akt/mTOR signaling pathway in human Hep3B cells assessed as reduction in phosphorylation of mTORC1/2 incubated for 1 hr under normoxia condition by Western blotting analysis; format: cell-based; conditions: dose 0.25-1 µM
[24] = Inhibition of PI3K/Akt/mTOR signaling pathway in human SNU-475 cells assessed as reduction in S6 phosphorylation at 1 to 10 nM incubated for 1 hr under hypoxia condition by Western blotting analysis; format: cell-based; conditions: dose 1-10 nM
[25] = tested on: Mahlavu; test: Induction of apoptosis in human Mahlavu cells assessed as viable cells at 0.66 uM incubated for 24 hrs by Annexin-V/7-AAD staining based muse cell analyzer method (reference value: 90.52 %); format: functional; conditions: read-out: Activity
[26] = Inhibition of PI3K/Akt/mTOR signaling pathway in human Mahlavu cells assessed as reduction in phosphorylation of Akt at 1 to 10 nM incubated for 1 hr under hypoxia condition by Western blotting analysis; format: cell-based; conditions: dose 1-10 nM
[27] = Inhibition of PI3K/Akt/mTOR signaling pathway in human HepG2 cells assessed as reduction in phosphorylation of mTORC1/2 incubated for 1 hr under normoxia condition by Western blotting analysis; format: cell-based; conditions: dose 0.25-1 µM
[28] = target: Hypoxia-inducible factor 1-alpha (Homo sapiens) (UniProt Q16665); test: Inhibition of HIF-1alpha in human Hep3B cells incubated for 6 hrs under hypoxia condition by Western blot analysis; format: cell-based; conditions: dose 0.01-0.1 µM
Chain of Hypoxia-inducible factor 1-alpha (Homo sapiens) (Q16665 whole entry, looked up): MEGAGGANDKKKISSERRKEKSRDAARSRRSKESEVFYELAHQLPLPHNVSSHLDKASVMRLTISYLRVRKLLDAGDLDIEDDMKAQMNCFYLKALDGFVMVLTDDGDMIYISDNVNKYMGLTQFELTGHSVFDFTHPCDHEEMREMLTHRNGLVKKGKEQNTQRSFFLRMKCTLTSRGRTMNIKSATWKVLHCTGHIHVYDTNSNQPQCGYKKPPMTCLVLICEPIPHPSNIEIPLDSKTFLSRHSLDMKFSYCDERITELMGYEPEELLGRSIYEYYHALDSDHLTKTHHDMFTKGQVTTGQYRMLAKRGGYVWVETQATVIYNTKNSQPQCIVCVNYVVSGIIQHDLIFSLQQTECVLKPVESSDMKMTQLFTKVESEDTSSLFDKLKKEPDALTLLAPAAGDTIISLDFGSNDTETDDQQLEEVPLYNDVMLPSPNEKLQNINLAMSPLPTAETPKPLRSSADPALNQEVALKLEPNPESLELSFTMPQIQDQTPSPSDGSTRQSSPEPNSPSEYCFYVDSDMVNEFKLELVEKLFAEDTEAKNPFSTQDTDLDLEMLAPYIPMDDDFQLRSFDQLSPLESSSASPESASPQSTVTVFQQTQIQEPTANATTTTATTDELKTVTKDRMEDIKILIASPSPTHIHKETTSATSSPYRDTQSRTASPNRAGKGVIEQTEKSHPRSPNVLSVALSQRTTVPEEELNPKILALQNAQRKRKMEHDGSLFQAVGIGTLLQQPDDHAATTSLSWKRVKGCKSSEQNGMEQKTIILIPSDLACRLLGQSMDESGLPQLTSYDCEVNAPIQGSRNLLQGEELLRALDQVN

[29] = tested on: Mahlavu; test: Induction of autophagy in human Mahlavu cells assessed as reduction in cytotoxicity at 0.5 uM incubated for 24 hrs by MTT assay; format: functional, cell-based
[30] = tested on: Mahlavu; test: Induction of apoptosis in human Mahlavu cells assessed as late apoptotic cells at IC50 incubated for 24 hrs in presence of Z-VAD-fmk by Annexin-V/7-AAD staining based muse cell analyzer method (reference value: 2.24 %); format: functional
[31] = tested on: Hep 3B2; test: Induction of apoptosis in human Hep3B cells incubated for 24 hrs by Annexin-V/7-AAD staining based muse cell analyzer method; format: functional; conditions: dose 0.01-0.5 µM
[32] = tested on: Hep 3B2; test: Cytotoxicity against human Hep3B cells assessed as reduction in cell viability at 0.5 to 5 uM incubated for 24 hrs by MTT assay; format: functional, cell-based; conditions: dose 0.5-5 µM
[33] = tested on: Mahlavu; test: Induction of cell cycle arrest in human Mahlavu cells assessed as decrease in accumulation of cells in G2/M phase incubated at 0.01 to 0.1 uM for 24 hrs by propidium iodide staining based muse cell analysis; format: functional; conditions: dose 0.01-0.1 µM

inhibition [28]: Dose-Dependent Effect
SMILES: COc1ccc(-c2ccc3ncc4c(c3c2)n(-c2ccc(N3CCNCC3)c(C(F)(F)F)c2)c(=O)n4C)cn1 [BGT-226 FREE BASE]
Activity [1]: Active | inhibition [2]: Dose-Dependent Effect | Activity [3]: Active | Activity [4]: 81.63% | Activity [5]: Active | Activity [6]: Active | Activity [7]: 1.99% | Activity [8]: Active | inhibition [9]: Dose-Dependent Effect | Activity [10]: Active | inhibition [11]: Active | Activity [12]: Active | Activity [13]: 4.05% | Activity [14]: 32.14% | Activity [15]: 47.22% | inhibition [16]: Active | inhibition [17]: Dose-Dependent Effect | viability at 1.5 µM [18]: 48.6% | Activity [19]: Active | Activity [20]: Active | Activity [21]: Active | Activity [22]: Dose-Dependent Effect | inhibition [23]: Dose-Dependent Effect | inhibition [24]: Active | viability at 0.66 µM [25]: 50.8% | inhibition [26]: Active | inhibition [27]: Dose-Dependent Effect | Activity [29]: Active | Activity [30]: 5.85% | Activity [31]: Dose-Dependent Effect | Activity [32]: Active | Activity [33]: Active

— ChEMBL document CHEMBL5647692, “The novel dual PI3K/mTOR inhibitor NVP-BGT226 displays cytotoxic activity in both normoxic and hypoxic hepatocarcinoma cells” (Oncotarget, 2015)
